The record followed here is ChEMBL document CHEMBL1124687, “Analogues of atriopeptin(103-125)amide having high binding selectivity” (J Med Chem, 1989).

The species named for assay [1] is Oryctolagus cuniculus. The assay can be described thus: Binding affinity for vasorelaxant receptor by competitive displacement of [125I]-AP(103-126) from rabbit lung membranes. It counts as tissue-based. The settings on record: Membrane. (Loss of bound radioactivity is the signal in a displacement assay; it reports binding, not function.)
Assay [2] has as its target Atrial natriuretic peptide receptor (Homo sapiens) (UniProt P20594+P16066+P17342). Kind of assay: Selectivity factor, ratio of NVR and VR relative binding potency. It counts as protein assay. The settings on record: Oryctolagus cuniculus.
The target in assay [3] is T1, Atrial natriuretic peptide receptor 3 (Homo sapiens) (UniProt P17342).
T1 sequence (whole entry): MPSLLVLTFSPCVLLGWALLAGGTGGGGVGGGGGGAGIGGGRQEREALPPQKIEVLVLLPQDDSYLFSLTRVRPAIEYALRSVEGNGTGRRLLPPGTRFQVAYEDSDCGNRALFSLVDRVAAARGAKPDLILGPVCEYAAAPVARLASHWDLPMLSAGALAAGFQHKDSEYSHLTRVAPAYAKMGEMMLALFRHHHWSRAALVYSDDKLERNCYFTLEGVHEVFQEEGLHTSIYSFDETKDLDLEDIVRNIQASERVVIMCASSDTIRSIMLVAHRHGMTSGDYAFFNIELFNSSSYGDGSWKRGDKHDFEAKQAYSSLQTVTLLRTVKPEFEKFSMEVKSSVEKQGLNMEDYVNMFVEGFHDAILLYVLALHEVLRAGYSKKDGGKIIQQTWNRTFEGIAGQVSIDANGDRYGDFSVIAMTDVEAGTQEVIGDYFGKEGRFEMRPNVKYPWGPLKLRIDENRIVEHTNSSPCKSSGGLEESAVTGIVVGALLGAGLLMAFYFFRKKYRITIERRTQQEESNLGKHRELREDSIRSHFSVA
The assay can be described thus: Binding affinity for non-vasorelaxant receptor by competitive displacement of [125I]-AP(103-126) from rabbit lung membranes. Type of assay: tissue-based. Particulars: Oryctolagus cuniculus, Membrane, target entry is the homologue from another species.

Positions of bridges follow the written chain, without caps; N, C: chain ends. Non-standard residues stand in square brackets, D forms with d. Residues, ends and D or L forms follow the SMILES beside them. ξ: configuration not given here. Nva = CCC[C@H](N)C(=O)O; Abu = CC[C@H](N)C(=O)O; ξA = CC(N)C(=O)O

In the case of `CC[C@H](C)[C@@H]1NC(=O)[C@H](CCCN=C(N)N)NC(=O)CNC(=O)CNC(=O)[C@H](Cc2ccccc2)NC(=O)[C@H](CO)NC(=O)[C@@H](NC(=O)[C@@H](N)CO)CSSC[C@@H](C(=O)N[C@@H](CO)C(=O)N[C@@H](Cc2ccccc2)C(=O)N[C@@H](CCCN=C(N)N)C(N)=O)NC(=O)[C@H](CO)NC(=O)CNC(=O)[C@H](CC(C)C)NC(=O)CNC(=O)[C@H](CO)NC(=O)[C@H](CCC(N)=O)NC(=O)[C@H](C)NC(=O)CNC(=O)[C@H]([C@@H](C)CC)NC(=O)[C@@H](CCCN=C(N)N)NC(=O)[C@H](CC(=O)O)NC1=O`, the Relative potency came out at 0.005 in assay [1] and 2 in assay [3]. Further, in assay [2], the Ratio turned out to be 400.

In the case of `CC[C@H](C)[C@@H]1NC(=O)[C@H](CCCN=C(N)N)NC(=O)[C@H](CC(=O)O)NC(=O)[C@H]([C@@H](C)CC)NC(=O)[C@H](CCCN=C(N)N)NC(=O)CNC(=O)CNC(=O)[C@H](Cc2ccccc2)NC(=O)CNC(=O)[C@@H](NC(=O)[C@@H](N)CO)CSSC[C@H](C(=O)N[C@@H](CC(N)=O)C(=O)N[C@@H](CO)C(=O)N[C@@H](Cc2ccccc2)C(=O)N[C@@H](CCCN=C(N)N)C(N)=O)NC(=O)CNC(=O)[C@H](CC(C)C)NC(=O)CNC(=O)[C@H](CO)NC(=O)[C@H](CCC(N)=O)NC(=O)[C@H](C)NC(=O)CNC1=O`, the Relative potency amounted to 0.056 in assay [1] and 1.8 in assay [3]. Besides, the Ratio in assay [2] was determined as 32.

`CC[C@H](C)[C@@H]1NC(=O)[C@H](CCCN=C(N)N)NC(=O)[C@H](CC(=O)O)NC(=O)[C@H]([C@@H](C)CC)NC(=O)[C@H](CCCN=C(N)N)NC(=O)CNC(=O)CNC(=O)[C@H](Cc2ccccc2)NC(=O)[C@H](NC(=O)[C@H](CO)NC(=O)[C@@H](N)CO)CSSC[C@@H](C(=O)N[C@@H](CO)C(=O)N[C@@H](Cc2ccccc2)C(=O)N[C@@H](CCCN=C(N)N)C(N)=O)NC(=O)[C@H](CSC)NC(=O)CNC(=O)[C@H](CC(C)C)NC(=O)CNC(=O)[C@H](CO)NC(=O)[C@H](CCC(N)=O)NC(=O)[C@H](C)NC(=O)CNC1=O`: the Relative potency in assay [1] is 0.1; in assay [3] it was 3.1. For the same compound, in assay [2], the Ratio came to 31.

On to `CC[C@H](C)[C@@H]1NC(=O)[C@H](CCCN=C(N)N)NC(=O)[C@H](CC(=O)O)NC(=O)[C@H]([C@@H](C)CC)NC(=O)[C@H](CCCN=C(N)N)NC(=O)CNC(=O)CNC(=O)[C@H](Cc2ccccc2)NC(=O)[C@H](CSC)NC(=O)[C@@H](NC(=O)[C@@H](N)CO)CSSC[C@@H](C(=O)N[C@@H](CC(N)=O)C(=O)N[C@@H](CO)C(=O)N[C@@H](Cc2ccccc2)C(=O)N[C@@H](CCCN=C(N)N)C(N)=O)NC(=O)CNC(=O)[C@H](CC(C)C)NC(=O)CNC(=O)[C@H](CO)NC(=O)[C@H](CCC(N)=O)NC(=O)[C@H](C)NC(=O)CNC1=O` (H-SCC(Me)FGGRIDRIGAQSGLGCNSFR-NH2; disulfide 2-19), for which the figures for the Relative potency in assay [1] and in assay [3] were 0.28 and 6.6, respectively. The Ratio in assay [2] was determined as 24.

With `CC[C@H](C)[C@@H]1NC(=O)[C@H](CCCN=C(N)N)NC(=O)[C@H](CC(=O)O)NC(=O)[C@H]([C@@H](C)CC)NC(=O)[C@H](CCCN=C(N)N)NC(=O)CNC(=O)CNC(=O)[C@H](Cc2ccccc2)NC(=O)CNC(=O)[C@@H](NC(=O)[C@@H](N)CO)CSSC[C@@H](C(=O)N[C@@H](CO)C(=O)N[C@@H](Cc2ccccc2)C(=O)N[C@@H](CCCN=C(N)N)C(N)=O)NC(=O)CNC(=O)CNC(=O)[C@H](CC(C)C)NC(=O)CNC(=O)[C@H](CO)NC(=O)[C@H](CCC(N)=O)NC(=O)[C@H](C)NC(=O)CNC1=O` (H-SCGFGGRIDRIGAQSGLGGCSFR-NH2; disulfide 2-20), the Relative potency in assay [1] came to 0.0069; in assay [3], 1.5. In addition, the Ratio in assay [2] was 217.

For the compound `CC[C@H](C)[C@@H]1NC(=O)[C@H](CCCN=C(N)N)NC(=O)[C@H](CC(=O)O)NC(=O)[C@H]([C@@H](C)CC)NC(=O)[C@H](CCCN=C(N)N)NC(=O)CNC(=O)CNC(=O)[C@H](Cc2ccccc2)NC(=O)[C@H](CO)NC(=O)[C@@H](NC(=O)[C@@H](N)CO)CSSC[C@@H](C(=O)N[C@@H](CC(N)=O)C(=O)N[C@@H](CO)C(=O)N[C@@H](Cc2ccccc2)C(=O)N[C@@H](CCCN=C(N)N)C(N)=O)NC(=O)CNC(=O)[C@H](CC(C)C)NC(=O)CNC(=O)[C@H](CO)NC(=O)[C@H](CCC(N)=O)NC(=O)[C@H](C)NC(=O)CNC1=O` (H-SCSFGGRIDRIGAQSGLGCNSFR-NH2; disulfide 2-19), the Relative potency in assay [1] is 0.24; in assay [3] it was 3.8. In assay [2], the Ratio stood at 16.

For the compound `CC[C@@H]1NC(=O)[C@@H](NC(=O)[C@@H](N)CO)CSSC[C@@H](C(=O)N[C@@H](CC(N)=O)C(=O)N[C@@H](CO)C(=O)N[C@@H](Cc2ccccc2)C(=O)N[C@@H](CCCN=C(N)N)C(N)=O)NC(=O)CNC(=O)[C@H](CC(C)C)NC(=O)CNC(=O)[C@H](CO)NC(=O)[C@H](CCC(N)=O)NC(=O)[C@H](C)NC(=O)CNC(=O)[C@H]([C@@H](C)CC)NC(=O)[C@H](CCCN=C(N)N)NC(=O)[C@H](CC(=O)O)NC(=O)[C@H]([C@@H](C)CC)NC(=O)[C@H](CCCN=C(N)N)NC(=O)CNC(=O)CNC(=O)[C@H](Cc2ccccc2)NC1=O` (H-SC[Abu]FGGRIDRIGAQSGLGCNSFR-NH2; disulfide 2-19), the values for the Relative potency in assay [1] and in assay [3] were 0.053 and 2.1, respectively. The Ratio in assay [2] worked out at 40.

Take `CCC[C@@H]1NC(=O)[C@@H](NC(=O)[C@@H](N)CO)CSSC[C@@H](C(=O)N[C@@H](CC(N)=O)C(=O)N[C@@H](CO)C(=O)N[C@@H](Cc2ccccc2)C(=O)N[C@@H](CCCN=C(N)N)C(N)=O)NC(=O)CNC(=O)[C@H](CC(C)C)NC(=O)CNC(=O)[C@H](CO)NC(=O)[C@H](CCC(N)=O)NC(=O)[C@H](C)NC(=O)CNC(=O)[C@H]([C@@H](C)CC)NC(=O)[C@H](CCCN=C(N)N)NC(=O)[C@H](CC(=O)O)NC(=O)[C@H]([C@@H](C)CC)NC(=O)[C@H](CCCN=C(N)N)NC(=O)CNC(=O)CNC(=O)[C@H](Cc2ccccc2)NC1=O` (H-SC[Nva]FGGRIDRIGAQSGLGCNSFR-NH2; disulfide 2-19): the Relative potency in assay [1] amounted to 0.0084; in assay [3] it was 0.75. In addition, in assay [2], the Ratio was 89.

Take `CCC[C@@H]1NC(=O)CNC(=O)[C@H](CC(C)C)NC(=O)CNC(=O)[C@H](CO)NC(=O)[C@H](CCC(N)=O)NC(=O)[C@H](C)NC(=O)CNC(=O)[C@H]([C@@H](C)CC)NC(=O)[C@H](CCCN=C(N)N)NC(=O)[C@H](CC(=O)O)NC(=O)[C@H]([C@@H](C)CC)NC(=O)[C@H](CCCN=C(N)N)NC(=O)CNC(=O)CNC(=O)[C@H](Cc2ccccc2)NC(=O)[C@H](CCC)NC(=O)[C@@H](NC(=O)[C@@H](N)CO)CSSC[C@@H](C(=O)N[C@@H](CO)C(=O)N[C@@H](Cc2ccccc2)C(=O)N[C@@H](CCCN=C(N)N)C(N)=O)NC1=O` (H-SC[Nva]FGGRIDRIGAQSGLG[Nva]CSFR-NH2; disulfide 2-20): the Relative potency in assay [1] stood at 0.001; in assay [3], 0.47. In addition, in assay [2], the Ratio amounted to 470.

As to `CC[C@H](C)[C@@H]1NC(=O)[C@H](CCCN=C(N)N)NC(=O)[C@H](CC(=O)O)NC(=O)[C@H]([C@@H](C)CC)NC(=O)[C@H](CCCN=C(N)N)NC(=O)CNC(=O)CNC(=O)[C@H](Cc2ccccc2)NC(=O)C(C)NC(=O)[C@@H](NC(=O)[C@@H](N)CO)CSSC[C@@H](C(=O)N[C@@H](CC(N)=O)C(=O)N[C@@H](CO)C(=O)N[C@@H](Cc2ccccc2)C(=O)N[C@@H](CCCN=C(N)N)C(N)=O)NC(=O)CNC(=O)[C@H](CC(C)C)NC(=O)CNC(=O)[C@H](CO)NC(=O)[C@H](CCC(N)=O)NC(=O)[C@H](C)NC(=O)CNC1=O` (some centres undefined) (H-SC[ξA]FGGRIDRIGAQSGLGCNSFR-NH2; disulfide 2-19), the Relative potency was 0.088 in assay [1] and 2.2 in assay [3]. In addition, in assay [2], the Ratio was 25.

For `CC[C@H](C)[C@@H]1NC(=O)[C@H](CCCN=C(N)N)NC(=O)[C@H](CC(=O)O)NC(=O)[C@H]([C@@H](C)CC)NC(=O)[C@H](CCCN=C(N)N)NC(=O)CNC(=O)CNC(=O)[C@H](Cc2ccccc2)NC(=O)[C@@H](NC(=O)[C@H](CO)NC(=O)[C@@H](N)CO)CSSC[C@@H](C(=O)NCC(=O)N[C@@H](CC(N)=O)C(=O)N[C@@H](CO)C(=O)N[C@@H](Cc2ccccc2)C(=O)N[C@@H](CCCN=C(N)N)C(N)=O)NC(=O)[C@H](CC(C)C)NC(=O)CNC(=O)[C@H](CO)NC(=O)[C@H](CCC(N)=O)NC(=O)[C@H](C)NC(=O)CNC1=O` (H-SSCFGGRIDRIGAQSGLCGNSFR-NH2; disulfide 3-18), the Ratio in assay [2] is 1. The same compound came in with a Relative potency in assay [3] of 0.91.

As for `CC[C@H](C)[C@@H]1NC(=O)[C@H](CCCN=C(N)N)NC(=O)[C@H](CC(=O)O)NC(=O)[C@H]([C@@H](C)CC)NC(=O)[C@H](CCCN=C(N)N)NC(=O)CNC(=O)CNC(=O)[C@H](Cc2ccccc2)NC(=O)[C@@H](NC(=O)[C@H](CO)NC(=O)[C@@H](N)CO)CSSC[C@@H](C(=O)N[C@@H](CC(N)=O)C(=O)N[C@@H](CO)C(=O)N[C@@H](Cc2ccccc2)C(=O)N[C@@H](CCCN=C(N)N)C(N)=O)NC(=O)CNC(=O)[C@H](CC(C)C)NC(=O)CNC(=O)[C@H](CO)NC(=O)[C@H](CCC(N)=O)NC(=O)[C@H](C)NC(=O)CNC1=O` (H-SSCFGGRIDRIGAQSGLGCNSFR-NH2; disulfide 3-19), the Ratio in assay [2] is 1. This compound yielded a Relative potency in assay [3] of 1.
